According to publication PMC8975978, “Bioassay-guided isolation of cytotoxic constituents from the flowers of Aquilaria sinensis” (Natural Products and Bioprospecting, 2022):
Read-outs that look alike come from different tables or passages of the source.

Assays:
[1] = system: human lung adenocarcinoma SPC-A-1 cells; experiment: MTS cytotoxicity assay, SPC-A-1; type: cell-based
Experimental: (§1) It had better inhibition against lung cancer cell lines than against other cancer cell lines (Table 1). Thus, the next bioactivity-guided separations were conducted according to the cytotoxicities of the fractions against lung cancer cell lines (A-549, NCI-H520, and SPC-A-1), as well as normal BEAS-2B cells and paclitaxel-resistant lung cancer A549/Taxol cells.
(§2) The cytotoxicity activities were evaluated by MTS assay as previously described.

[2] = system: human lung squamous cell carcinoma NCI-H520 cells; experiment: MTS cytotoxicity assay, NCI-H520; type: cell-based
Experimental: as §1, §2

[3] = system: human lung adenocarcinoma A549 cells; experiment: MTS cytotoxicity assay, A549; type: cell-based
Experimental: as §1, §2

[4] = system: human cervical cancer HeLa cells; experiment: MTS cytotoxicity assay, HeLa; type: cell-based; conditions: Table 1, HeLa
Experimental: as §1, §2

[5] = system: human neuroblastoma SH-SY5Y cells; experiment: MTS cytotoxicity assay, SH-SY5Y; type: cell-based; conditions: Table 1, SH-SY5Y
Experimental: as §1, §2

[6] = system: human ovarian carcinoma SK-OV-3 cells; experiment: MTS cytotoxicity assay, SK-OV-3; type: cell-based; conditions: Table 1, SK-OV-3
Experimental: as §1, §2

[7] = system: human T-cell leukemia MT4 cells; experiment: MTS cytotoxicity assay, MT4; type: cell-based; conditions: Table 1, MT4
Experimental: as §1, §2

[8] = system: human prostate cancer PC-3 cells; experiment: MTS cytotoxicity assay, PC-3; type: cell-based; conditions: Table 1, PC-3
Experimental: as §1, §2

[9] = system: human hepatoma SMMC-7721 cells; experiment: MTS cytotoxicity assay, SMMC-7721; type: cell-based; conditions: Table 1, SMMC-7721
[10] = system: human breast cancer MDA-MB-231 cells; experiment: MTS cytotoxicity assay, MDA-MB-231; type: cell-based; conditions: Table 1, MDA-MB-231
Experimental: as §1, §2

[11] = system: human small cell lung cancer NCI-H446 cells; experiment: MTS cytotoxicity assay, NCI-H446; type: cell-based; conditions: Table 1, NCI-H446
Experimental: as §1, §2

[12] = system: human large cell lung carcinoma NCI-H460 cells; experiment: MTS cytotoxicity assay, NCI-H460; type: cell-based; conditions: Table 1, NCI-H460
Experimental: as §1, §2

[13] = system: human colon cancer SW-480 cells; experiment: MTS cytotoxicity assay, SW480; type: cell-based; conditions: Table 1, SW480
Experimental: as §1, §2

[14] = system: human breast cancer MCF-7 cells; experiment: MTS cytotoxicity assay, MCF-7; type: cell-based; conditions: Table 1, MCF-7
Experimental: as §1, §2

[15] = system: human leukemia HL-60 cells; experiment: MTS cytotoxicity assay, HL-60; type: cell-based; conditions: Table 1, HL-60
Experimental: as §1, §2

[16] = system: human normal bronchial epithelial BEAS-2B cells; experiment: MTS cytotoxicity assay, normal BEAS-2B; type: cell-based
Experimental: as §1, §2

[17] = system: paclitaxel-resistant A549 (A549/Taxol) cells; experiment: MTS cytotoxicity assay, A549/Taxol; type: cell-based, human
Experimental: as §1, §2

[18] = system: SPC-A-1, NCI-H520, A549 and A549/Taxol cell lines; experiment: MTS cytotoxicity assay, four tested lung cancer cell lines together; type: cell-based, human
Experimental: Thus, the next bioactivity-guided separations were conducted according to the cytotoxicities of the fractions against lung cancer cell lines (A-549, NCI-H520, and SPC-A-1), as well as normal BEAS-2B cells and paclitaxel-resistant lung cancer A549/Taxol cells.
Isolates 1–6 were evaluated for their cytotoxicities against SPC-A-1, NCI-H520, A549, A549/Taxol, and BEAS-2B cell lines (Table 5).
as §2

[19] = Table 5, SPC-A-1, read-out: IC50
[20] = Table 5, NCI-H520, read-out: IC50
[21] = Table 5, A549/Taxol, read-out: IC50
[22] = Homo sapiens, SPCA1, Table 5, SPC-A-1, read-out: IC50
[23] = Homo sapiens, NCI-H520, Table 5, NCI-H520, read-out: IC50
[24] = Homo sapiens, A549, Table 5, A549, read-out: IC50
[25] = Homo sapiens, Table 5, BEAS-2B normal cells, read-out: IC50
[26] = Homo sapiens, A549/Taxol, Table 5, A549/Taxol, read-out: IC50

What does the source list for `N.N.[Cl][Pt][Cl]` [Cisplatin]?
IC50 ([1]; Table 1, SPC-A-1): 1.76 ± 0.40 µg/mL; IC50 ([1]; Table 2, SPC-A-1): 3.10 ± 0.13 µg/mL; IC50 ([1]; Table 3, SPC-A-1): 3.06 ± 1.07 µg/mL; IC50 ([1]; Table 4, SPC-A-1): 2.49 ± 0.07 µg/mL; IC50 [1, 19]: 21.4 ± 0.35 µM; IC50 ([2]; Table 1, NCI-H520): 6.69 ± 1.46 µg/mL; IC50 ([2]; Table 2, NCI-H520): 3.12 ± 0.18 µg/mL; IC50 ([2]; Table 3, NCI-H520): 3.75 ± 0.52 µg/mL; IC50 ([2]; Table 4, NCI-H520): 3.11 ± 0.22 µg/mL; IC50 [2, 20]: 12 ± 0.6 µM; IC50 ([3]; Table 1, A549): 3.83 ± 0.79 µg/mL; IC50 ([3]; Table 2, A-549): 4.99 ± 0.08 µg/mL; IC50 ([3]; Table 3, A549): 3.02 ± 0.59 µg/mL; IC50 ([3]; Table 4, A549): 2.28 ± 0.57 µg/mL; IC50 ([3]; Table 5, A549, read-out: IC50): 13.5 ± 0.64 µM; IC50 [4]: 1.14 ± 0.152 µg/mL; IC50 [5]: 2.85 ± 0.272 µg/mL; IC50 [6]: 3.67 ± 0.97 µg/mL; IC50 [7]: 0.16 ± 0.01 µg/mL; IC50 [8]: 1.38 ± 0.23 µg/mL; IC50 [9]: 1.53 ± 0.11 µg/mL; IC50 [10]: 3.16 ± 0.97 µg/mL; IC50 [11]: 3.78 ± 0.79 µg/mL; IC50 [12]: 5.29 ± 0.48 µg/mL; IC50 [13]: 2.00 ± 0.52 µg/mL; IC50 [14]: 2.00 ± 0.93 µg/mL; IC50 [15]: 1.97 ± 1.30 µg/mL; IC50 ([16]; Table 1, BEAS-2B normal cells): 9.14 ± 1.41 µg/mL; IC50 ([16]; Table 2, BEAS-2B normal cells): 7.36 ± 0.56 µg/mL; IC50 ([16]; Table 3, BEAS-2B normal cells): > 12 µg/mL; IC50 ([16]; Table 4, BEAS-2B normal cells): 8.86 ± 1.32 µg/mL; IC50 ([16]; Table 5, BEAS-2B normal cells, read-out: IC50): 34.9 ± 1.16 µM; IC50 ([17]; Table 2, A549/Taxol): 4.29 ± 0.26 µg/mL; IC50 ([17]; Table 3, A549/Taxol): 3.41 ± 0.47 µg/mL; IC50 ([17]; Table 4, A549/Taxol): 4.13 ± 0.86 µg/mL; IC50 [17, 21]: 15 ± 0.93 µM

Which results are given for `CC(=O)OC(C)(C)C=CC(=O)C(C)(O)C1C(O)CC2(C)C3CC=C4C(CC(=O)OC4(C)C)C3(C)C(=O)CC12C` (centres unmarked) [Compound 1, aquilarolide A]?
IC50 [1, 22]: 0.56 ± 0.02 µM; IC50 [2, 23]: 0.16 ± 0.01 µM; IC50 [3, 24]: 0.35 ± 0.06 µM; IC50 [16, 25]: 17.9 ± 0.3 µM; IC50 [17, 26]: 0.2 ± 0.01 µM

Which results are given for `CC(=O)OC(C)(C)CCC(=O)[C@](C)(O)[C@H]1[C@H](O)C[C@@]2(C)[C@@H]3CC=C4[C@@H](C=C(O)C(=O)C4(C)C)[C@]3(C)C(=O)C[C@]12C` [Compound 2, 23,24-dihydrocucurbitacin E]?
IC50 [1, 22]: > 40 µM; IC50 [2, 23]: > 40 µM; IC50 [3, 24]: > 40 µM; IC50 [16, 25]: > 40 µM; IC50 [17, 26]: > 40 µM; IC50 ([18]; four tested cancer cell lines taken together (SPC-A-1, NCI-H520, A549, A549/Taxol)): inactive

Which results are given for `CC(=O)OC(C)(C)/C=C/C(=O)[C@](C)(O)[C@H]1[C@H](O)C[C@@]2(C)[C@@H]3CC=C4[C@@H](C=C(O)C(=O)C4(C)C)[C@]3(C)C(=O)C[C@]12C` [Compound 3, cucurbitacin E]?
IC50 ([1]; Table 5, SPC-A-1, listed as Cucurbitacin E, read-out: IC50): ≤ 0.02 µM; IC50 [1, 19]: 0.005 µM; IC50 ([2]; Table 5, NCI-H520, listed as Cucurbitacin E, read-out: IC50): ≤ 0.02 µM; IC50 [2, 20]: 0.001 µM; IC50 [3, 24]: ≤ 0.02 µM; IC50 ([3]; Table 5, A549, read-out: IC50): 0.02 µM; IC50 [16, 25]: 3.46 ± 0.13 µM; IC50 ([17]; Table 5, A549/Taxol, listed as Cucurbitacin E, read-out: IC50): ≤ 0.02 µM; IC50 [17, 21]: 0.002 µM; IC50 ([18]; Homo sapiens): ≤ 0.03 µM

For `COc1cc(O)c2c(c1)O[C@H](c1ccc(O)cc1)CC2=O` [Compound 5, (−)-(2S)-5,4ʹ-dihydroxy-7-methoxyflavanone], which IC50 [1, 22] is on record?
Its IC50 is over 40 µM.

What about the IC50 ([2]; Homo sapiens, Table 5, NCI-H520, read-out: IC50) of the same molecule?
Its IC50 is over 40 µM.

And the IC50 ([3]; Homo sapiens, Table 5, A549, read-out: IC50)?
Its IC50 is over 40 µM.

And the IC50 ([16]; Homo sapiens, BEAS-2B, Table 5, BEAS-2B normal cells, read-out: IC50)?
Its IC50 is over 40 µM.

And the IC50 [17, 26]?
Its IC50 is over 40 µM.
